Data reported in patent US11547705B2, “Combination of a PD-1 antagonist and a VEGF-R/FGFR/RET tyrosine kinase inhibitor for treating cancer” (MERCK SHARP & DOHME LLC, priority 2015, dated 2023).

Tests used:
[1] = tested on: mouse lung cancer cell line LL/2 (LLc1); assay: Anti-tumor effect in subcutaneous LL/2 (LLc1) transplantation model; type: in vivo; conditions: C57BL/6J mice, lenvatinib oral once daily, anti-PD-1 antibody 500 μg/head i.p. every 3 days
Protocol: A DMEM culture medium (high-glucose type) containing 10% fetal bovine serum (FBS) and penicillin/streptomycin was used to culture a mouse lung cancer cell line LL/2 (LLc1) (ATCC number: CRL-1642). Next, phosphate buffered saline (PBS) was used to prepare a cell suspension having a concentration of 2.0×10^7 cells/mL. The cell suspension was subcutaneously transplanted at a dose of 0.1 mL on the right lateral side of the body of each of 7-week-old mice (C57BL/6J, female, Charles River Laboratories Japan Inc.). Eight (8) days after the transplantation, an electronic digital caliper (Digimatic™ Caliper; Mitutoyo Corporation) was used to measure the short and long diameters of a tumor of interest. The following equation was used to calculate the tumor volume TV. Tumor Volume TV (mm^3)=Long Diameter (mm)×Short Diameter (mm)×Short Diameter (mm)/2.
(§1) Based on the tumor volumes on the first day of administration, grouping was carried out such that the average values of the tumor volumes were almost the same. A 1 mg/ml solution of lenvatinib was prepared using water for injection (Otsuka Pharmaceutical Co., Ltd.) and was orally administered at a dose of 0.2 mL/20 g mouse body weight once daily for 14 days. 0.2 mL of an administration sample containing 2.5 mg/mL of an anti-mouse-PD-1 antibody (Clone: RMP1-14, BioXCell, Catalog#: BE0146), which had been diluted with PBS, was intraperitoneally administered (at a dosage of 500 μg/head) once every 3 days a total of 5 times (day 1, day 4, day 7, day 10, and day 13, with the day of the grouping set to day 1). To the control group, Otsuka water for injection was orally administered at a dose of 0.2 mL/20 g mouse body weight once daily for 14 days. Each group including 5 mice was used to conduct the experiment. The day (day 15) after the final administration, the respective tumor volumes (TV) were determined for the control group, the lenvatinib administration group, the anti-mouse-PD-1 antibody administration group, and the combination administration group. The values obtained by logarithmically transforming the tumor volumes were used to carry out statistical analysis.

[2] = tested on: mouse colon carcinoma cell line CT26.WT; assay: Anti-tumor effect in subcutaneous CT26.WT transplantation model, lenvatinib mesilate and anti-PD-L1 antibody; type: in vivo; conditions: BALB/c mice, lenvatinib mesilate oral once daily, anti-PD-L1 antibody 500 μg/head i.p. every 3 days
Protocol: A RPMI1640 culture medium containing 10% FBS and penicillin/streptomycin was used to culture a mouse colon carcinoma cell line CT26.WT (ATCC number: CRL-2638). Hank's Balanced Salt Solution (HBSS) was used to prepare a cell suspension having a concentration of 3.0×10^7 cells/mL. The cell suspension was subcutaneously transplanted at a dose of 0.1 mL on the right lateral side of the body of each of 7-week-old mice (BALB/cAnNCrlCrlj, female, Charles River Laboratories Japan Inc.). 8 days after the transplantation, an electronic digital caliper (Digimatic™ Caliper; Mitutoyo Corporation) was used to measure the short and long diameters of a tumor of interest. The following equation was used to calculate the tumor volume TV. Tumor Volume TV (mm^3)=Long Diameter (mm)×Short Diameter (mm)×Short Diameter (mm)/2.
as §1, with “of lenvatinib mesilate was prepared” for “of lenvatinib was prepared”, “of an anti-mouse-PD-L1 antibody, which had” for “of an anti-mouse-PD-1 antibody (Clone: RMP1-14, BioXCell, Catalog#: BE0146), which had”, “tumor volumes TV were determined” for “tumor volumes (TV) were determined”, “group, the anti-mouse-PD-L1 antibody administration” for “group, the anti-mouse-PD-1 antibody administration”

VEGFR2 = VEGFR2 (Homo sapiens, UniProt P35968); conditions: according to kinetic analysis; background statement; cited from earlier work
[3] = Day 1 (day of grouping, first day of administration)

Sequence of VEGFR2 (P35968 20-1356, species assumed): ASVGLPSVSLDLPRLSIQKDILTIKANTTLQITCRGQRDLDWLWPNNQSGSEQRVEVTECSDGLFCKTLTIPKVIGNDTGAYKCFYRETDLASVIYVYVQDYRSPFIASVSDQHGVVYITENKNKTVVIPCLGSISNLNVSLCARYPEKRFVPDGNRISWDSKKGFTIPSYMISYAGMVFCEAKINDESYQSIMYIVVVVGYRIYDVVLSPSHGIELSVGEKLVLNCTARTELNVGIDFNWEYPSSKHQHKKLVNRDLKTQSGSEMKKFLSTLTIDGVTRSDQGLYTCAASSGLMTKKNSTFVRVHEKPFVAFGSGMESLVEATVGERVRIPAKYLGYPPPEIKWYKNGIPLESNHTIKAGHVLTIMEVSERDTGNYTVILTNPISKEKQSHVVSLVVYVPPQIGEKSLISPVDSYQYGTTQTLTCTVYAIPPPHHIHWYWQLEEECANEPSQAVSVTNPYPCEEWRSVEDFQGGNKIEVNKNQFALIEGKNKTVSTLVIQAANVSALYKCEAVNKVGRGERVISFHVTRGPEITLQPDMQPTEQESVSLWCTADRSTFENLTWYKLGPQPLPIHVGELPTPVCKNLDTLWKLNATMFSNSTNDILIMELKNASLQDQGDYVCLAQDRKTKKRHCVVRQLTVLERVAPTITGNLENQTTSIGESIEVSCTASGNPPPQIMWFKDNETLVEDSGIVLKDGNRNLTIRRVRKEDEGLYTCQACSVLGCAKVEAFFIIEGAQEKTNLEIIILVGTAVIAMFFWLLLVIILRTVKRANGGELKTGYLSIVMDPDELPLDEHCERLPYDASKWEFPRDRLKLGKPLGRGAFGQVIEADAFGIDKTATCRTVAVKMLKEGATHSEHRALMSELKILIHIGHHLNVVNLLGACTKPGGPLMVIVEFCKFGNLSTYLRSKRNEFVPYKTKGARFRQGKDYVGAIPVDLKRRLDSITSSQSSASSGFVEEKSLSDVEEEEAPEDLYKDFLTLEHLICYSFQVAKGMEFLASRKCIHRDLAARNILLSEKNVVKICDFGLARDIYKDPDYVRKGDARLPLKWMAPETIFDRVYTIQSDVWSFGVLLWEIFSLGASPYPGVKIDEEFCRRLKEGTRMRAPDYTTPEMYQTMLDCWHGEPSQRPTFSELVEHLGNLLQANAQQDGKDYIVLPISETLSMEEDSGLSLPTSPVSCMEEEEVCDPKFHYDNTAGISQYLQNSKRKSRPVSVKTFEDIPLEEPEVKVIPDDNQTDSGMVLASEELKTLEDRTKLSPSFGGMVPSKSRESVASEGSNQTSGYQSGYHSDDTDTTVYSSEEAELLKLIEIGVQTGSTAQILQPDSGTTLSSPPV

In the case of COc1cc2nccc(Oc3ccc(NC(=O)NC4CC4)c(Cl)c3)c2cc1C(N)=O [Lenvatinib, 4-[3-chloro-4-(cyclopropylaminocarbonyl)aminophenoxy]-7-methoxy-6-quinolinecarboxamide], the “Tumor Volume TV” value [1, 3] is reported as 100 mm^3, the “Tumor Volume TV” value ([1]; Day 4) is reported as 243 mm^3 and the “Tumor Volume TV” value ([1]; Day 8) is reported as 394 mm^3. For the same compound, the “Tumor Volume TV” value ([1]; Day 10) was 553 mm^3, the “Tumor Volume TV” value ([1]; Day 13) was 837 mm^3 and the “Tumor Volume TV” value ([1]; Day 15 (day after final administration)) was 1143 mm^3. The “Tumor Volume TV” value [2, 3] was 154 mm^3, the “Tumor Volume TV” value ([2]; Day 4) was 472 mm^3 and the “Tumor Volume TV” value ([2]; Day 8) was 1172 mm^3. For the same compound, the “Tumor Volume TV” value ([2]; Day 11) was 1555 mm^3 and the “inhibition of kinase activity” value (VEGFR2) was “rapid and potent inhibition of kinase activity”.
